The target of test [1] is T1, (Homo sapiens, UniProt P08069).
T1 construct: human IGF1R kinase domain residues M954-C1367; made in house; host or cells: baculovirus expression (insect cells)
As to the kind of experiment: IGF1R kinase assay (LCCA), IGF 0P. It is filed as biochemical. Summed up: (§1)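 Read-out is percent ATP remaining, detected by luciferase-luciferin luminescence after a 2 h ambient reaction. Reaction contained 4 nM IGF1R kinase domain (residues M954-C1367, baculovirus-made), 3 μM ATP (near KM), 4 μM poly EY, pH 7.5 with Mg2+/Mn2+. Ten inhibitor concentrations; IC50 by Hill-type curve fit.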

The target of test [2] is T2, IGF 3P (Homo sapiens, UniProt P08069).
T2 construct: human IGF1R kinase domain residues M954-C1367; made in house; host or cells: baculovirus expression (insect cells)
As to the kind of experiment: IGF1R kinase assay (LCCA), IGF 3P. It is filed as biochemical. Summed up: as §1

Where two headings read alike, the source gives them in different places.

The source of these data is patent US8211929B2, “Pyrimidine derivatives as kinase modulators and method of use” (Exelixis, Inc., priority 2004, dated 2012).

T2 sequence (P08069 954-1367): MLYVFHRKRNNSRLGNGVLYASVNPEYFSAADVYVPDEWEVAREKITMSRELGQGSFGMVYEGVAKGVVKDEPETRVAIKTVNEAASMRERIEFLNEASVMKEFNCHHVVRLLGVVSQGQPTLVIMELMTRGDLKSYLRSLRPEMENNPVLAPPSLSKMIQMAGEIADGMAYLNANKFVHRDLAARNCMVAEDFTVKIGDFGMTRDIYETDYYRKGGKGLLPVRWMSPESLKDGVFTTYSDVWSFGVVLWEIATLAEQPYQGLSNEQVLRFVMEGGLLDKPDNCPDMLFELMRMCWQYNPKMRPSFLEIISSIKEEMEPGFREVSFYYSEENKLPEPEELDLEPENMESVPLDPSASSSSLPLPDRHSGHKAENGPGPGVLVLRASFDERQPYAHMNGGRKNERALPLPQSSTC
T1 sequence (P08069 954-1367): as above

Take `CC(C)c1cc(Nc2cc(OCCN3CCCCC3)nc(NCc3cc(C(C)C)no3)n2)[nH]n1` [Example 595, N^2-{[3-(1-methylethyl)isoxazol-5-yl]methyl}-N^4-[3-(1-methylethyl)-1H-pyrazol-5-yl]-6-[(2-piperidin-1-ylethyl)oxy]pyrimidine-2,4-diamine]: the IC50 is 50 to 500 nM in test [1] and less than 50 nM in test [2].

For the compound `Brc1cnc(Nc2ccc3c(c2)CCC3)nc1Nc1cc(C2CC2)[nH]n1` [Example 180], the IC50 in test [1] (IGF1R kinase LCCA assay) and in test [2] (IGF1R kinase LCCA assay) was 500 to 5000 nM each time.

Regarding `CC(C)c1cc(Nc2cc(N3CCN[C@@H](C)C3)nc(NCc3cc(-c4ccccc4)no3)n2)n[nH]1` [Example 591, N^4-[5-(1-methylethyl)-1H-pyrazol-3-yl]-6-[(3S)-3-methylpiperazin-1-yl]-N^2-[(3-phenylisoxazol-5-yl)methyl]pyrimidine-2,4-diamine], the IC50 in test [1] is 50 to 500 nM; in test [2], less than 50 nM.

As to `CN1CCN(C(=O)c2ccc(Nc3ncc(Br)c(Nc4cc(C5CC5)n[nH]4)n3)cc2)CC1` [Example 124], the IC50 was 500 to 5000 nM in test [1] (IGF1R kinase LCCA assay) and 50 to 500 nM in test [2] (IGF1R kinase LCCA assay).

As for `Brc1cnc(Nc2ccccc2I)nc1Nc1cc(C2CC2)n[nH]1` [Example 96], the IC50 in test [1] (IGF1R kinase LCCA assay) and in test [2] (IGF1R kinase LCCA assay) was 50 to 500 nM in each case.

Regarding `O=C(c1ccccc1)c1ccccc1Nc1ncc(Br)c(Nc2cc(C3CC3)n[nH]2)n1` [Example 335], the half-maximal inhibitory concentration (IC50) in test [1] (IGF1R kinase LCCA assay) and in test [2] (IGF1R kinase LCCA assay) was greater than 5000 nM each time.

`Cc1cc(N2CCN(C)CC2)nc(N2CCN(C)CC2)n1` [Example 308]: the IC50 in test [1] (IGF1R kinase LCCA assay) and in test [2] (IGF1R kinase LCCA assay) was greater than 5000 nM each time.

For the compound `Brc1cnc(Nc2cccc(OCc3ccccc3)c2)nc1Nc1cc(C2CC2)n[nH]1` [Example 269], the IC50 in test [1] (IGF1R kinase LCCA assay) and in test [2] (IGF1R kinase LCCA assay) was greater than 5000 nM throughout.

Regarding `Brc1cnc(Nc2ccccc2N2CCCCC2)nc1Nc1cc(C2CC2)[nH]n1` [Example 334], the IC50 in test [1] (IGF1R kinase LCCA assay) and in test [2] (IGF1R kinase LCCA assay) was greater than 5000 nM in each case.

Turning to `Cc1cc(CNc2nc(Nc3cc(C4CC4)[nH]n3)cc(N3CC4CC3CN4C)n2)on1` (stereo not drawn) [Example 631, N^4-(5-cyclopropyl-1H-pyrazol-3-yl)-6-(5-methyl-2,5-diazabicyclo[2.2.1]hept-2-yl)-N^2-[(3-methylisoxazol-5-yl)methyl]pyrimidine-2,4-diamine], the figures for the IC50 in test [1] and in test [2] were 50 to 500 nM and less than 50 nM, respectively.

As for `CCN(CC)CCNc1cc(Nc2cc(C(C)C)[nH]n2)nc(NCc2cc(-c3ccccc3)no2)n1` [Example 592, N^4-[2-(diethylamino)ethyl]-N^6-[5-(1-methylethyl)-1H-pyrazol-3-yl]-N^2-[(3-phenylisoxazol-5-yl)methyl]pyrimidine-2,4,6-triamine], the IC50 in test [1] is 50 to 500 nM; in test [2], less than 50 nM.

With `CC(=O)NCC1CC(n2cc(-c3cccc(OCc4ccccc4)c3)c3c(NC(C)=O)ncnc32)C1` (stereo not drawn) [Example 346], the results for the IC50 in test [1] (IGF1R kinase LCCA assay) and in test [2] (IGF1R kinase LCCA assay) were greater than 5000 nM and 500 to 5000 nM, respectively.

In the case of `Brc1cnc(Nc2ccc(OCc3ccccc3)cc2)nc1Nc1cc(C2CC2)n[nH]1` [Example 320], the IC50 in test [1] (IGF1R kinase LCCA assay) and in test [2] (IGF1R kinase LCCA assay) was greater than 5000 nM each time.

As to `COc1cc(Nc2nc(C)cc(Nc3cc(C4CC4)[nH]n3)n2)cc(OC)c1` [Example 261], the IC50 was 500 to 5000 nM in test [1] (IGF1R kinase LCCA assay) and greater than 5000 nM in test [2] (IGF1R kinase LCCA assay).

On to `CCN(CC)CCCNC(=O)c1cc(Nc2cc(C3CC3)[nH]n2)nc(NCc2cc(-c3ccccc3)no2)n1` [Example 529], for which the IC50 in test [1] (IGF1R kinase LCCA assay) and in test [2] (IGF1R kinase LCCA assay) was 50 to 500 nM in each case.

Turning to `Cc1cc(Nc2cc(C3CC3)[nH]n2)nc(NCc2ccco2)n1` [Example 563], the IC50 in test [1] (IGF1R kinase LCCA assay) and in test [2] (IGF1R kinase LCCA assay) was 500 to 5000 nM in each case.

In the case of `Nc1ncnn1-c1nc(Nc2ccc(N3CCOCC3)cc2)ncc1Br` [Example 285], the IC50 in test [1] (IGF1R kinase LCCA assay) and in test [2] (IGF1R kinase LCCA assay) was greater than 5000 nM each time.

On to `CN1CCN(CCNC(=O)c2cc(Nc3cc(C4CC4)[nH]n3)nc(NCc3cc(-c4ccccc4)no3)n2)CC1` [Example 527], for which the IC50 in test [1] (IGF1R kinase LCCA assay) and in test [2] (IGF1R kinase LCCA assay) was 50 to 500 nM throughout.

Consider `Clc1c(Nc2cc(C3CC3)n[nH]2)nc(NCc2cc(-c3ccccc3)no2)nc1N1CCOCC1` [Example 624, 5-chloro-N^4-(3-cyclopropyl-1H-pyrazol-5-yl)-6-morpholin-4-yl-N^2-[(3-phenylisoxazol-5-yl)methyl]pyrimidine-2,4-diamine], for which the IC50 in test [1] and in test [2] was 50 to 500 nM each time.

On to `Clc1ccccc1Nc1ncc(Br)c(Nc2cc(C3CC3)on2)n1` [Example 286], for which the IC50 in test [1] (IGF1R kinase LCCA assay) and in test [2] (IGF1R kinase LCCA assay) was greater than 5000 nM in each case.

Regarding `Clc1ccc(CCNc2ncc(Br)c(Nc3cc(C4CC4)n[nH]3)n2)cc1` [Example 230], the IC50 in test [1] (IGF1R kinase LCCA assay) was greater than 5000 nM; in test [2] (IGF1R kinase LCCA assay), 500 to 5000 nM.

Take `c1cc(Nc2cc(C3CC3)n[nH]2)nc(Nc2ccc(N3CCOCC3)cc2)n1` [Example 224]: the IC50 in test [1] (IGF1R kinase LCCA assay) and in test [2] (IGF1R kinase LCCA assay) was 500 to 5000 nM in each case.

As to `O=C(Nc1ccccc1)c1nc(Nc2ccccc2Cl)nc(Nc2cc(C3CC3)n[nH]2)c1[N+](=O)[O-]` [Example 276], the IC50 in test [1] (IGF1R kinase LCCA assay) is 500 to 5000 nM; in test [2] (IGF1R kinase LCCA assay), greater than 5000 nM.

Regarding `O=C(NCCN1CCOCC1)c1cc(Nc2cc(C3CC3)[nH]n2)nc(NCc2cc(-c3ccccc3)no2)n1` [Example 533], the IC50 in test [1] (IGF1R kinase LCCA assay) and in test [2] (IGF1R kinase LCCA assay) was 50 to 500 nM each time.

The term IC50 denotes the concentration needed to halve the response being measured. A low value points to greater potency.
